Results on 85 molecules are retold here after a melting point compilation (Tetko et al.; mined from patent text by program, amines drawn as free bases though some values may be those of a salt).

One may read the melting point as the temperature, or range, at which the solid turns liquid.

SMILES strings stand for the structures.

`CCOC(=O)CCCCc1oc(=O)[nH]c1-c1ccc(Cl)cc1` returned a melting point of 143 to 144 °C.

With `CCCc1[nH]cnc1C(=O)OCC`, the melting point is 175 to 179 °C.

In turn, `O=C(O)C(Cc1ccccc1)Oc1c(Br)cc(-c2c(Br)ccc3sc4ccccc4c23)cc1Br` (stereo not given) had a melting point of 98 to 100 °C.

`COP(=O)(OC)C(O)c1ccccc1` (stereo not given) showed a melting point of 85 to 86 °C.

As for `Cn1ccc(C=C[N+](=O)[O-])c1`, the melting point fell in the range of 90 to 92 °C.

`Cc1cc(O)c([N+](=O)[O-])c(=O)n1CC(=O)OCc1ccccc1` had a melting point of 146 to 147 °C.

For `CN1CCc2c(C3=CC(=O)CCC3)c(F)cc3c(=O)c(C(=O)O)cn1c23`, the melting point was > 300 °C.

`Cc1ccc(S(=O)(=O)NC(=O)Nc2ccc(Cl)cc2)cc1` showed a melting point of 174 to 176 °C.

`CC(C)n1nc(-c2cc(C(=O)NCCO)cnc2-c2ccccc2)ccc1=O` gave a melting point of 165 to 167 °C.

In the case of `COc1ccc(N2CCN(c3c(C)c(C)c4c(c3C)C(c3ccccc3)C(C)(C)O4)CC2)cc1` (stereo not given), the melting point is 126 to 128 °C.

For `CC1(C)C(=O)N(c2ccc(C#N)c(C(F)(F)F)c2)C(=O)N1CCCCOCc1ccccc1`, the melting point was 75 to 76 °C.

On to `COc1cc2ncnc(N3CCC(CN4CCCN(C(C)C)S4(=O)=O)CC3)c2cc1OC`, for which the melting point was in the range of 158 to 161 °C.

For `CC(c1ccc(O)cc1)C(CS)C(=O)NC(Cc1ccc(O)cc1)C(=O)O` (stereo not given), the melting point stood at 115 °C.

Turning to `COc1nsc(NC(=O)[C@H](C)NC(=O)[C@H](Cc2ccccc2)NC(=O)OCc2ccccc2)n1`, the melting point was in the range of 161 to 162 °C.

With `CC(O)c1coc2cc(NS(C)(=O)=O)c(Oc3ccccc3)cc2c1=O` (stereo not given), the melting point was 136 to 138 °C.

In the case of `COc1ccc(Nc2ccc3c(c2)OCC(=O)N3)cc1`, the melting point was 174 to 175 °C.

`COc1ccc(C2(C#Cc3cccc(N)c3)CCCC(=O)C2)cc1OC1CCCC1` (stereo not given) registered a melting point of 100 to 102 °C.

`Cc1nc2sccn2c(=O)c1C` came in with a melting point of 112 to 113 °C.

With `N#CC1c2ccccc2COc2ccc(Cl)cc21` (stereo not given), the melting point fell in the range of 113 to 115 °C.

Take `Cc1ccc(C(=S)CCCCCl)cc1`: the melting point is 87 to 89 °C.

Turning to `O=C(NNCCO)c1ccc(NCc2cc(Br)ccc2OCc2ccccc2)cc1`, the melting point was in the range of 121 to 122 °C.

`O=CN(c1cc(Cl)cc(Cl)c1)c1cc(S(=O)(=O)NC(c2ccccc2)c2ccccc2)ccc1Cl` yielded a melting point of 196 to 198 °C.

As to `Cn1ccc2ncnc(Oc3ccc(NC(=O)Nc4cccc(C(F)(F)F)c4)c(Cl)c3)c21`, the melting point was in the range of 192 to 194 °C.

As to `CCCc1cc2c(cc1C(=O)c1ccc(C(O)=NO)cc1)C(C)(C)CCC2(C)C`, the melting point was in the range of 255 to 257 °C.

`O=C(CCCCC(=O)NCC1Cc2c1ccc(OCc1ccccc1)c2OCc1ccccc1)NCCc1ccccc1` (stereo not given) came in with a melting point of 152 to 155 °C.

The molecule `CCS(=O)c1nsc(NC(=O)N(C)C)c1C#N` (stereo not given) yielded a melting point of 162 to 163 °C.

Take `COCCCNc1cc(C(F)(F)F)ccc1N`: the melting point is 69 to 70 °C.

`CCC(CC)OCc1c(-c2ccc(OC(F)F)c(OC3CC3)c2)[nH]c2cn[nH]c(=O)c12` had a melting point of 133 to 162 °C.

The molecule `O=[N+]([O-])c1cc2cc(Br)ccc2nc1Cl` displayed a melting point of 203 °C.

In turn, `COC(=O)Cc1cc2cc(O)ccc2s1` had a melting point of 136 to 137 °C.

Consider `Clc1cc2c(oc3c(Cl)c(Br)c(Cl)c(Br)c32)c(Br)c1Br`, for which the melting point is 288 to 290 °C.

For the molecule `OC(COc1ccc(F)c(F)c1)CN1CCC(NCc2nc3ccccc3s2)CC1` (single isomer, unassigned; (+)), the melting point was determined as 65.8 °C.

In turn, `CCOC(=O)c1cc(C(C)=O)[nH]n1` returned a melting point of 114 to 115 °C.

Regarding `Nc1c(C(=O)O)cccc1-c1ccc(CCc2ccc(Cl)c(C(F)(F)F)c2)cc1`, the melting point fell in the range of 150 to 152 °C.

For `COC(=O)CCCCCCCCOC1OC(CO)C(OC2OC(C)C(O)C(O)C2O)C(O)C1NC(C)=O` (stereo not given), the melting point lay within 145 to 146 °C.

Molecule `NCCCCc1c[nH]c(-c2ccc(F)cc2)c1-c1ccncc1` came in with a melting point of 185 to 187 °C.

In turn, `NCCNc1ccc([N+](=O)[O-])cc1Cl` displayed a melting point of 116 °C.

Regarding `CCN(CC)C(=O)[C@@H](C)[C@H]1CC[C@H]2[C@@H]3CCC4=CC(=O)CC[C@]4(C)[C@H]3CC[C@]12C`, the melting point was 198 to 199 °C.

Molecule `CCCc1cn(C)c2c(=O)[nH]c(-c3cc(S(=O)(=O)N4CCN(CCCOC(=O)[C@@H](NC(=O)OC(C)(C)C)C(C)C)CC4)ccc3OCC)nc12` showed a melting point of 132 to 134 °C.

In the case of `CCOC(=O)C1(F)C(=O)NC(=O)NC1ON=C1CCC1` (stereo not given), the melting point was 188 to 189 °C.

Molecule `Nc1cc(S)c(Cl)cc1F` came in with a melting point of 64.5 to 66 °C.

In turn, `CC1CCCC(C)C1NSc1nc2ccccc2s1` (stereo not given) gave a melting point of 75 to 93 °C.

As to `O=C(O)CCc1cc2cc(OC(F)(F)F)ccc2n1S(=O)(=O)c1ccccc1`, the melting point was 138 to 146 °C.

`CC(C)(C)n1nc(-c2ccc(Cl)cc2)c2c(N)c(C#N)cnc21` showed a melting point of 213 to 215 °C.

The molecule `N#CC=C1CCN(c2ccc(N3C[C@H](CNC(=S)CO)OC3=O)cc2F)CC1` came in with a melting point of 102 to 105 °C.

Turning to `CN1CC(C(=O)N(C)C(Cc2ccc(Cl)cc2)Cc2ccc(Cl)cc2)=C(O)C1=O`, the melting point lay within 152 to 154 °C.

Consider `CSc1ccc(N=Cc2ccc(Cl)cc2)cc1`, for which the melting point lay in the range of 203 to 205 °C.

In turn, `CC(C)=CCc1c(O)ccc(C(=O)C=Cc2ccc(O)cc2)c1O` came in with a melting point of 75 to 76 °C.

In turn, `C=CCOc1nc(Nc2ccc(OC)nc2)nc2c1ncn2CCCC` returned a melting point of 147 to 149 °C.

Consider `C[C@H](N)Cn1ncc2ccc3oc(C(=O)NCCCN4CCCC4=O)cc3c21`, for which the melting point turned out to be 82 °C.

Regarding `CN(C)C=Nc1c(Cl)cc(N=Cc2cccc(C(F)(F)F)c2)cc1Cl`, the melting point is 62 to 64 °C.

The molecule `CC1c2cc(C(C)(C)C)cc(C(C)(C)C)c2O[PH](=O)Oc2c1cc(C(C)(C)C)cc2C(C)(C)C` (stereo not given) had a melting point of 209 °C.

`O=Cc1c2ccccc2cc2c1sc1ccccc12` had a melting point of 199 °C.

In the case of `Fc1ccc(F)c(C=C2CCNc3nc(Br)ccc32)c1`, the melting point was in the range of 178 to 179 °C.

Molecule `CC(C)NC1=NS(=O)(=O)c2ccc(C3CCCCC3)cc2N1` registered a melting point of 131 to 133 °C.

`CC(=O)NC(CC(=O)c1ccccc1)OC(C)=O` (stereo not given) returned a melting point of 82 to 83 °C.

For the molecule `NS(=O)(=O)c1ccc(-n2nc(C(=O)O)cc2-c2ccc(Cl)cc2)cc1`, the melting point is 126 to 128 °C.

For `OC(CSc1nc[nH]n1)(Cn1cncn1)c1ccc(Cl)cc1Cl` (stereo not given), the melting point lay in the range of 180 to 182 °C.

The molecule `CC(C)(C)[C@@H](NC(=O)c1cc(Cl)cc(Cl)c1)NC1C(=O)C(=O)C1Nc1cccnc1Cl` (stereo not given in full) came in with a melting point of 233 to 234 °C.

`COc1ccc(NC(=O)C2(C(=O)O)CC2)cc1` showed a melting point of 133 to 136 °C.

The molecule `CC(=O)n1ncc2c(OCC3CO3)cccc21` (stereo not given) displayed a melting point of 83 °C.

`CC(C)(NCCCn1ccnc1)c1ccc(-c2ccc(O)cc2)cc1` had a melting point of 178 to 180 °C.

With `COC(=O)c1ccc(C(O)c2ccc(C(=O)OC)cc2)cc1`, the melting point amounted to 116 °C.

In turn, `O=c1nc(-c2ccccc2)c2cc([N+](=O)[O-])ccc2n1CC12CC3CC(CC(C3)C1)C2` had a melting point of 228 to 231 °C.

`CCOC(C)c1ccc(OCCOc2ncnc(NS(=O)(=O)c3ccc(C(C)(C)C)cc3)c2-c2ccc(C)cc2)cc1` (stereo not given) showed a melting point of 139 to 140 °C.

`CN1C(=O)CN=C(c2ccccc2)c2ccccc21` registered a melting point of 151 to 154 °C.

On to `CCCCCCCCCCCCCCOC(=O)CCC1(CO)CCC(=O)O1` (stereo not given), for which the melting point turned out to be 59 °C.

Consider `CC1=C(C#N)C(c2ccccc2[N+](=O)[O-])C(C(=O)O)=C(C)N1` (stereo not given), for which the melting point stood at 225 °C.

As to `CCCCOc1c(CNC(=O)OC(C)(C)C)n(CC(C)C)c(=O)c2ccc(-c3nc(C)c(C(N)=O)s3)cc12`, the melting point turned out to be 234 °C.

On to `CC(c1oc2ccccc2c(=O)c1-c1cccc(F)c1)n1nc(-c2ccc(F)nc2)c2c(N)ncnc21` (stereo not given), for which the melting point was in the range of 203 to 206 °C.

For `CCN1C(=O)C(C)(C)C(=O)N(C)c2cc(CN(CCn3ccc4oc(C)cc4c3=O)Cc3ccnnc3)ccc21`, the melting point lay in the range of 137 to 141 °C.

Take `c1ccc(COc2ccc3[nH]cc(Cc4cccnc4)c3c2)cc1`: the melting point is 148 °C.

`COc1ccnc(CCc2nc3cc(-c4ccc(S(=O)(=O)N5CCN(c6ccc(C)cc6C)CC5)cc4)cnc3[nH]2)c1` gave a melting point of 208 to 209 °C.

In the case of `CNC(=O)c1ccccc1Nc1nc(Nc2ccc3c(c2)NC(=O)CCC3)ncc1Cl`, the melting point was 293 to 295 °C.

In turn, `CC(C)(C)CN(CC(C)(C)C)C(=O)C(O)(C(=O)O)c1ccc(Cl)c(Cl)c1` (stereo not given) yielded a melting point of 94 to 95 °C.

Molecule `CCCc1c(OC(=O)OCC)ccc2oc(Cc3ccc(OC)cc3)c(C)c12` displayed a melting point of 51 to 53 °C.

With `N#Cc1cc(N2CCN(CCCCCC(=O)N3Cc4ccccc4C3)CC2)cc(C(F)(F)F)c1`, the melting point worked out at 128 °C.

For the molecule `CC(C)(C)c1cc(C=C2CC(C)(C)N(C(N)=O)C2=O)cc(C(C)(C)C)c1O`, the melting point was 200 to 203 °C.

`CC1=C(C(=O)NC(C)(C)C)C(c2ccccc2Cl)C(C(=O)NC(C)C)=C(COCCn2c(C)nc3ccccc32)N1` (stereo not given) gave a melting point of 191 to 193 °C.

For `O=C(O)COc1c(Br)cc(-c2c3ccccc3c(Br)c3sc4ccccc4c23)cc1Br`, the melting point was in the range of 259 to 261 °C.

On to `CC(C)(C)OC(=O)N1CCC(Oc2ccc3c(c2)NC(=O)CC3)CC1`, for which the melting point was in the range of 158 to 160 °C.

As to `CC(=O)N1CCc2cc(N)ccc21`, the melting point was 183 to 185 °C.

Regarding `CC(C)C(C)CCC(C)C1CC(=O)C2=C3C(=O)CC4CC(OC(=O)c5ccccc5)CCC4(C)C3CCC21C` (stereo not given), the melting point lay in the range of 176 to 177 °C.

For the molecule `CCCCCCCCC1C=CC(/C=C(\C)c2ccc(C(=O)O)o2)=C2N=C3CCCCC3=C21` (stereo not given), the melting point lay within 160 to 162 °C.

`CCOc1ccc([N+](=O)[O-])nc1C` had a melting point of 82 to 84 °C.
